{"source": "paper doi:10.1101/2023.11.24.568596v1", "about": "(biorxiv, 2023)", "conditions_in_all_cases": "binder", "key": {"[1]": {"target": "CaMKK2 (Homo sapiens, UniProt Q96RR4)", "sequence (Q96RR4 whole entry)": "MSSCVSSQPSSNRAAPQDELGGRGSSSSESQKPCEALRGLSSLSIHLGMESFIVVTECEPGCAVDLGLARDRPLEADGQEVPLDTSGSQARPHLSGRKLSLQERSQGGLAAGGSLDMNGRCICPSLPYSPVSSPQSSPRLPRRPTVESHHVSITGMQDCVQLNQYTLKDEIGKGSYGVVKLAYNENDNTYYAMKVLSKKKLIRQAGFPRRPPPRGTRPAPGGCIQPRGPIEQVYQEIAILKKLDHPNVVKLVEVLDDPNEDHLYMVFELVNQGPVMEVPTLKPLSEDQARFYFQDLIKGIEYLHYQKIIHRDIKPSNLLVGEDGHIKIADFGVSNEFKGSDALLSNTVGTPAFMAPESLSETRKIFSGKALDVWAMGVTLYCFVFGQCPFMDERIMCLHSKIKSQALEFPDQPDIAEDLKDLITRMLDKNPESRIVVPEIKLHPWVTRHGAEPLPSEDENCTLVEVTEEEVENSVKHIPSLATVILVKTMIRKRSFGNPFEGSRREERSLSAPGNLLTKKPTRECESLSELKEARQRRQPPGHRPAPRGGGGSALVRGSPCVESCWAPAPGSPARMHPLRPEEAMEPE"}, "[2]": {"target": "T1, EphB3 (Homo sapiens, UniProt P54753)", "T1 sequence (P54753 1-998)": "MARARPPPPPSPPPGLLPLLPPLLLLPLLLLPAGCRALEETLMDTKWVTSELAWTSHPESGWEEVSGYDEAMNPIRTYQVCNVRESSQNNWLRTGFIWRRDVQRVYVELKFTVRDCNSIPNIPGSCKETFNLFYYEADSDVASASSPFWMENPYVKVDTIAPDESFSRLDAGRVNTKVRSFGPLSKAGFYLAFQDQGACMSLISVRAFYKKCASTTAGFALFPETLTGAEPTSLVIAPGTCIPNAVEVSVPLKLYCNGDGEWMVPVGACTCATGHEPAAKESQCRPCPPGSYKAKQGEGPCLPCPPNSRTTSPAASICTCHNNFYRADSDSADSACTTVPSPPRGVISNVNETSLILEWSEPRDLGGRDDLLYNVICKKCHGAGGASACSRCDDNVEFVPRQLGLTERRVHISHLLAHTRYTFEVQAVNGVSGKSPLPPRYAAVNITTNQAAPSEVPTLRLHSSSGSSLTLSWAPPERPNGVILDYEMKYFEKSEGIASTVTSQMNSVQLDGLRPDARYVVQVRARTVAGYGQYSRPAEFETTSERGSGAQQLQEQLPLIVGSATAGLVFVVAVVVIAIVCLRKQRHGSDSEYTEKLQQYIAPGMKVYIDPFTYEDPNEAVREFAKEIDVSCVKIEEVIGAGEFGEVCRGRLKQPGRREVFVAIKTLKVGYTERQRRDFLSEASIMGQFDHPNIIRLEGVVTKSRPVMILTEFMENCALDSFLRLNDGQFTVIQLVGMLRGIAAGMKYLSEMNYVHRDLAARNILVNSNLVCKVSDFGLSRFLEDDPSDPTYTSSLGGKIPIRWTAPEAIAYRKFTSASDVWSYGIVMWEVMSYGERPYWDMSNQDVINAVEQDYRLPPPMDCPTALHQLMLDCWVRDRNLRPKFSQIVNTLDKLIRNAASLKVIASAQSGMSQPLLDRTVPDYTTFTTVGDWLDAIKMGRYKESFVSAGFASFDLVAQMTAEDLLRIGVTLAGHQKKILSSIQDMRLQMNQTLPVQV"}, "[3]": {"target": "FLT1 (Homo sapiens, UniProt P17948)", "sequence (P17948 whole entry)": "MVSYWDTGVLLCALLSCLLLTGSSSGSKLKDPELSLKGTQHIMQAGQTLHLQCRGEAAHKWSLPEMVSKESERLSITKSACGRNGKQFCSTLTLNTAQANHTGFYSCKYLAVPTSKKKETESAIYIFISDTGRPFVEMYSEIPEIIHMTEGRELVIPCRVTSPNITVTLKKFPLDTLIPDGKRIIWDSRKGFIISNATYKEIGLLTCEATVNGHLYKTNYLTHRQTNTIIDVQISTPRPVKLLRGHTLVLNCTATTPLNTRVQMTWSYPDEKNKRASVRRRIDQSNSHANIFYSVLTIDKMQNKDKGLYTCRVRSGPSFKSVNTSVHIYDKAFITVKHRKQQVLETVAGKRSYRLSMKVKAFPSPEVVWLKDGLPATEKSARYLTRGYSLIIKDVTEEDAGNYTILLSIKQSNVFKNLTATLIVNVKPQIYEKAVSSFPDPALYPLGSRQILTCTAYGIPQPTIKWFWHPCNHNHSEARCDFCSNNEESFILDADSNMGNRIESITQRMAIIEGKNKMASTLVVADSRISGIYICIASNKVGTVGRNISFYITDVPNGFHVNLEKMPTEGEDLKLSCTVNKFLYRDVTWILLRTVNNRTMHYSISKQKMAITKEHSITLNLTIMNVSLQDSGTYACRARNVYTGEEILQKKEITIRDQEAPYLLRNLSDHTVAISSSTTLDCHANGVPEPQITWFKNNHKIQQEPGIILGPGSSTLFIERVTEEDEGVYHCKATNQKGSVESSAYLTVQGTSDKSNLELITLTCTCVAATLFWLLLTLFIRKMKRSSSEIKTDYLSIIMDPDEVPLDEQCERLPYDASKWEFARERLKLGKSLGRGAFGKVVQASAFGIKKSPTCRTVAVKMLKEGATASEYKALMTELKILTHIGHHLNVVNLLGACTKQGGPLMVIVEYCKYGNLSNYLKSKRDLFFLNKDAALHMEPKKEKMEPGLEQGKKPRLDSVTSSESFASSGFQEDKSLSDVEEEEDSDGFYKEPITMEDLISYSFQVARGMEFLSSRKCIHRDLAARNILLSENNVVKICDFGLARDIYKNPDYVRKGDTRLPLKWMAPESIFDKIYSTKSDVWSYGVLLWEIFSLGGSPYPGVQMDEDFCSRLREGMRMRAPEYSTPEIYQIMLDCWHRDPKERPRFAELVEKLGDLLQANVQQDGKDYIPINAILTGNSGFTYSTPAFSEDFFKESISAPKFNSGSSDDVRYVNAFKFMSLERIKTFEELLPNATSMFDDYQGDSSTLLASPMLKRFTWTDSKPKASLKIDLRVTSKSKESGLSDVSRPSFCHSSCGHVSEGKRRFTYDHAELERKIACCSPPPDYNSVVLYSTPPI"}, "[4]": {"target": "MARK3 (Homo sapiens, UniProt P27448)", "sequence (P27448 whole entry)": "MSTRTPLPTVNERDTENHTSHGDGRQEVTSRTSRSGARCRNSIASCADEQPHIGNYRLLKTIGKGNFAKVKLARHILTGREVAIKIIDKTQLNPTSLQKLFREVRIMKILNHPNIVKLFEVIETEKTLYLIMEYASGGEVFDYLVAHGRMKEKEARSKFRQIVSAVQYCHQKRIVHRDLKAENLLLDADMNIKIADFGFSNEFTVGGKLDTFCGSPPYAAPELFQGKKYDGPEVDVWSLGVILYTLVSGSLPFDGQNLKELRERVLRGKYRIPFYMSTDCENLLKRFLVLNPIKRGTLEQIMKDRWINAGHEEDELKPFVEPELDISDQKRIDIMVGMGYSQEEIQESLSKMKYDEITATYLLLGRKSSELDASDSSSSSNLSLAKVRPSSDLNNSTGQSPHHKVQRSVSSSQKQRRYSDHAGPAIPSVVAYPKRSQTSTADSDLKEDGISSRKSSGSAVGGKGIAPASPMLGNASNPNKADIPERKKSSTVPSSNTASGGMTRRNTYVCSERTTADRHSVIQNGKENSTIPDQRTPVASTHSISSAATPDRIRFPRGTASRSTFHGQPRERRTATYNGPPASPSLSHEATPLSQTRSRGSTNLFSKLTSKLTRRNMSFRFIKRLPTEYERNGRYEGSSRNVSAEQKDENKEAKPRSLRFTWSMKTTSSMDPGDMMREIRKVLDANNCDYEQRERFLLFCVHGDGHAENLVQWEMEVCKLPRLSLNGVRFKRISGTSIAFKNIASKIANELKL"}, "[5]": {"target": "T2, MER (Homo sapiens, UniProt Q12866)", "T2 sequence (Q12866 1-999)": "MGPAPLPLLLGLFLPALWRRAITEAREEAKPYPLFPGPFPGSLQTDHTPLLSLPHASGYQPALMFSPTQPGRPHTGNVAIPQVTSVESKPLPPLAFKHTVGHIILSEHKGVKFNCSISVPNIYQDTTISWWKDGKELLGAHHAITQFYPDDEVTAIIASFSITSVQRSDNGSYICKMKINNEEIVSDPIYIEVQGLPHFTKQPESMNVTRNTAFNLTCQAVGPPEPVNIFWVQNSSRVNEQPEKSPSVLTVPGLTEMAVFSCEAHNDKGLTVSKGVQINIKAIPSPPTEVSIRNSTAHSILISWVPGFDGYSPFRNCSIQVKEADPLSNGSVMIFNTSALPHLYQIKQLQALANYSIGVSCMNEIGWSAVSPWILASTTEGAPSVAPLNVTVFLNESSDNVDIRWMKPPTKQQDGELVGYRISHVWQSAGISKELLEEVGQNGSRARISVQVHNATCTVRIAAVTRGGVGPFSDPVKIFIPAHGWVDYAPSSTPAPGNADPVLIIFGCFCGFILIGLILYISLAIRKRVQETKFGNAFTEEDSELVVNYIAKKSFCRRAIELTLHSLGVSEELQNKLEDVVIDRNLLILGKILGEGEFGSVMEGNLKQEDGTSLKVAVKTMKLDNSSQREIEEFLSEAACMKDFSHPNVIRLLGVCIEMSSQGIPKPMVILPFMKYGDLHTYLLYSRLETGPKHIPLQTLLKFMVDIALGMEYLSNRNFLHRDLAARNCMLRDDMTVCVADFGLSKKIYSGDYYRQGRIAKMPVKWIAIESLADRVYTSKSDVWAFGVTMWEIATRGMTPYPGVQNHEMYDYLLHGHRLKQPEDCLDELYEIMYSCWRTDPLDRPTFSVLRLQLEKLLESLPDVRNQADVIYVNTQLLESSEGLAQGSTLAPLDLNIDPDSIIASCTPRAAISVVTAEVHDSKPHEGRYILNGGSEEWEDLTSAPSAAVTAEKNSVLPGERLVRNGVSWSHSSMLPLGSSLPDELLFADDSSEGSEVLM"}, "[6]": {"target": "MSK1b (Homo sapiens, UniProt O75582)", "sequence (O75582 whole entry)": "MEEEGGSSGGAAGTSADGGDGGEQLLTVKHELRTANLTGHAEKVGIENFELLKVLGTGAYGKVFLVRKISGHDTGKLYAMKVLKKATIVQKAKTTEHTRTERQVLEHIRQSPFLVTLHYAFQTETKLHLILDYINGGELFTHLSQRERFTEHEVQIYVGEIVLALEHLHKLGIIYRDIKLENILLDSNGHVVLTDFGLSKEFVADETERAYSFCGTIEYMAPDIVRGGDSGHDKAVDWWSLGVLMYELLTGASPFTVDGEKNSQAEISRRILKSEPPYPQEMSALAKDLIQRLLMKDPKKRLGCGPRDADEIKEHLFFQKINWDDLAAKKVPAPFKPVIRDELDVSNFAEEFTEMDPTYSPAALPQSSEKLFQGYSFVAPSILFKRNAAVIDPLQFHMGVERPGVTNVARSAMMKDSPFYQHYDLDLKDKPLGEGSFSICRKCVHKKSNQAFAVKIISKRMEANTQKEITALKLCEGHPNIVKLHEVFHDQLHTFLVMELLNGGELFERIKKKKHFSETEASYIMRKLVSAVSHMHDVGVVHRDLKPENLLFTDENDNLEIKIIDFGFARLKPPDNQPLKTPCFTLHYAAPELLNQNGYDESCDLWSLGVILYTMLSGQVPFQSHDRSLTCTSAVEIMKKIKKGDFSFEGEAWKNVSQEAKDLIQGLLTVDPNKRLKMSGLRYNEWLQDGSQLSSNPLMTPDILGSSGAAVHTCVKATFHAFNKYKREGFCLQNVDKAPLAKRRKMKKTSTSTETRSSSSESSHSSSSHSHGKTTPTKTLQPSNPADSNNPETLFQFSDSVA"}, "[7]": {"target": "OSR1 (Homo sapiens, UniProt O95747)", "sequence (O95747 whole entry)": "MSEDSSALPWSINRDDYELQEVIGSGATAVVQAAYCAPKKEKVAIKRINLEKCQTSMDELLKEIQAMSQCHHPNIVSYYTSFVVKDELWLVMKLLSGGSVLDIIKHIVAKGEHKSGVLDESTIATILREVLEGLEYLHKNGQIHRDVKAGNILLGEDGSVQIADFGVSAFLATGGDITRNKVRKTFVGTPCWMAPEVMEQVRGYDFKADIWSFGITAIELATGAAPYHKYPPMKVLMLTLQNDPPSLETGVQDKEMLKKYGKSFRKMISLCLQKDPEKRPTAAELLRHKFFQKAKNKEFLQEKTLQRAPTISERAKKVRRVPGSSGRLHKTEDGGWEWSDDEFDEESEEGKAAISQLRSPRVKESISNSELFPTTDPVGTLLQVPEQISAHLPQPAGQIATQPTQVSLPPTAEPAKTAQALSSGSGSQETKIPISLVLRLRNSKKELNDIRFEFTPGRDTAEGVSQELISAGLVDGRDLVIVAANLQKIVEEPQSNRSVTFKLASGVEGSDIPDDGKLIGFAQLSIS"}, "[8]": {"target": "T3, MST2 (Homo sapiens, UniProt Q13188)", "T3 sequence (Q13188 1-491)": "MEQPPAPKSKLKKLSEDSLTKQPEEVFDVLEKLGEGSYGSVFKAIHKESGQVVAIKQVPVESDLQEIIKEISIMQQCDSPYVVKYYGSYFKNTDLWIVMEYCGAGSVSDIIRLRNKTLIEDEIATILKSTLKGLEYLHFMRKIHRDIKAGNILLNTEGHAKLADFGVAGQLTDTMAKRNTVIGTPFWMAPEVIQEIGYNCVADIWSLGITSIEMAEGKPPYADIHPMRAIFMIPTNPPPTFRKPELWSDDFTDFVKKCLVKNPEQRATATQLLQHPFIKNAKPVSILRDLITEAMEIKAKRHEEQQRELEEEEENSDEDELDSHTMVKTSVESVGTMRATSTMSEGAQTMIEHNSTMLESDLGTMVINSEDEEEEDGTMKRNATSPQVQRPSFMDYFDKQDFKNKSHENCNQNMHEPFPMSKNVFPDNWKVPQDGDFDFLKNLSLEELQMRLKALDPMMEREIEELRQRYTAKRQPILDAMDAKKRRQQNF"}}}
{"molecule": "COc1ccc(O)c(Nc2ncc3cc(-c4ccc(-c5cccc(C)n5)cc4Cl)c(=O)n(CCCCN)c3n2)c1", "note": "[compound 34, 8-(4-Aminobutyl)-6-(2-chloro-4-(6-methylpyridin-2-yl)phenyl)-2-((2-hydroxy-5-methoxy-phenyl)amino)pyrido[2,3-d]pyrimidin-7(8H)-one]", "values": [{"measurement": "dTm 34", "setting": "[1]", "value": 4.3, "unit": "°C"}, {"measurement": "dTm 34", "setting": "[2]", "value": 4.1, "unit": "°C"}, {"measurement": "dTm 34", "setting": "[3]", "value": 3.2, "unit": "°C"}, {"measurement": "dTm 34", "setting": "[4]", "value": 5.1, "unit": "°C"}, {"measurement": "dTm 34", "setting": "[5]", "value": 0.1, "unit": "°C"}, {"measurement": "dTm 34", "setting": "[6]", "value": 2.4, "unit": "°C"}, {"measurement": "dTm 34", "setting": "[7]", "value": 0.4, "unit": "°C"}]}
{"molecule": "Cc1cccc(-c2ccc(-c3cc4cnc(Nc5ccc(F)c(CO)c5)nc4n(CCCCN)c3=O)c(Cl)c2)n1", "note": "[compound 33, 8-(4-Aminobutyl)-6-(2-chloro-4-(6-methylpyridin-2-yl)phenyl)-2-((4-fluoro-3-(hydroxymethyl)phenyl)amino)pyrido[2,3-d]pyrimidin-7(8H)-one]", "values": [{"measurement": "dTm 33", "setting": "[1]", "value": 4.3, "unit": "°C"}, {"measurement": "dTm 33", "setting": "[2]", "value": 8.7, "unit": "°C"}, {"measurement": "dTm 33", "setting": "[3]", "value": 4.9, "unit": "°C"}, {"measurement": "dTm 33", "setting": "[4]", "value": 11.5, "unit": "°C"}, {"measurement": "dTm 33", "setting": "[5]", "value": 3.1, "unit": "°C"}, {"measurement": "dTm 33", "setting": "[6]", "value": 3.5, "unit": "°C"}, {"measurement": "dTm 33", "setting": "[7]", "value": 2.4, "unit": "°C"}]}
{"molecule": "COc1cc(N2CCOCC2)ccc1Nc1ncc2cc(-c3ccc(-c4cccc(C)n4)cc3Cl)c(=O)n(CCCCN)c2n1", "note": "[compound 35, 8-(4-Aminobutyl)-6-(2-chloro-4-(6-methylpyridin-2-yl)phenyl)-2-((2-methoxy-4-morpholino-phenyl)amino)pyrido[2,3-d]pyrimidin-7(8H)-one]", "values": [{"measurement": "dTm 35", "setting": "[1]", "value": 6.9, "unit": "°C"}, {"measurement": "dTm 35", "setting": "[2]", "value": 4.5, "unit": "°C"}, {"measurement": "dTm 35", "setting": "[3]", "value": 5.6, "unit": "°C"}, {"measurement": "dTm 35", "setting": "[4]", "value": 6.9, "unit": "°C"}, {"measurement": "dTm 35", "setting": "[5]", "value": 0.0, "unit": "°C"}, {"measurement": "dTm 35", "setting": "[6]", "value": 3.8, "unit": "°C"}, {"measurement": "dTm 35", "setting": "[7]", "value": 2.6, "unit": "°C"}]}
{"molecule": "CNc1ncc2cc(-c3ccc(-c4cccc(C)n4)cc3Cl)c(=O)n(C[C@H]3CC[C@H](N)CC3)c2n1", "note": "[compound 23, 23]", "values": [{"measurement": "dTm MST2", "setting": "[8]", "value": 10.8, "unit": "°C"}]}
{"molecule": "COc1cc(N2CCN(C)CC2)ccc1Nc1ncc2cc(-c3ccc(-c4cccc(C)n4)cc3Cl)c(=O)n(CCCCN)c2n1", "note": "[compound 36, 8-(4-Aminobutyl)-6-(2-chloro-4-(6-methylpyridin-2-yl)phenyl)-2-((2-methoxy-4-(4-methylpiperazin-1-yl)phenyl)amino)pyrido[2,3-d]pyrimidin-7(8H)-one]", "values": [{"measurement": "dTm 36", "setting": "[1]", "value": 5.8, "unit": "°C"}, {"measurement": "dTm 36", "setting": "[2]", "value": 3.3, "unit": "°C"}, {"measurement": "dTm 36", "setting": "[3]", "value": 4.4, "unit": "°C"}, {"measurement": "dTm 36", "setting": "[4]", "value": 8.5, "unit": "°C"}, {"measurement": "dTm 36", "setting": "[5]", "value": -0.2, "unit": "°C"}, {"measurement": "dTm 36", "setting": "[6]", "value": 3.0, "unit": "°C"}, {"measurement": "dTm 36", "setting": "[7]", "value": 3.4, "unit": "°C"}]}
{"molecule": "CNc1ncc2cc(-c3ccc(-c4cccc(C)n4)cc3Cl)c(=O)n(CCC3CCNCC3)c2n1", "note": "[compound 22, 6-(2-Chloro-4-(6-methylpyridin-2-yl)phenyl)-2-(methylamino)-8-(2-(piperidin-4-yl)ethyl)pyrido[2,3-d]pyrimidin-7(8H)-one]", "values": [{"measurement": "dTm MST2", "setting": "[8]", "value": 8.0, "unit": "°C"}]}
{"molecule": "CNc1ncc2cc(-c3ccc(-c4cccc(C)n4)cc3Cl)c(=O)n(CCCCN)c2n1", "note": "[compound 20, MRLW5]", "values": [{"measurement": "dTm MST2", "setting": "[8]", "value": 7.9, "unit": "°C"}]}
